Assay results as given in patent publication US9801960B2, “Probe for a biological specimen and labelling method and screening method using the probe” (CANON KABUSHIKI KAISHA, priority 2008, dated 2017).

Assays:
[1] = Storage stability of staining compound solution in DMSO; format: physicochemical; conditions: 10 ng/mL in DMSO, closed glass container, normal temperature, 1 month; rate of change of absorbance and fluorescence intensity
Description: A 10 ng/mL solution of each of the staining compounds of Labelled Examples 1 to 78 and Labelled Comparative Examples 1 and 2 in DMSO was prepared, charged into a well-closed container made of glass, and left to stand still at normal temperature for 1 month. The absorbance and the fluorescence intensity at the time of the start of a storage stability test were measured at a given wavelength, and their rates of change were examined (+++: rates of change of the absorbance and the fluorescence intensity are less than 5%, and thus, the storage stability is highly excellent; ++: rates of change of the absorbance and fluorescence intensity are 5 to 15%, and thus, the storage stability is excellent; and −: rates of change of the absorbance and fluorescence intensity are more than 15%, and thus, the storage stability is poor).

[2] = Excitation and fluorescence emission wavelength measurement; format: physicochemical; set-up: Stokes shift (λem − λex): unit not given here; conditions: aqueous solution: 10 mg/mL solution in DMSO diluted 500-fold with purified water
Description: It should be noted that the excitation wavelength and the fluorescence emission wavelength of the staining compound were determined by measuring an aqueous solution, which had been obtained by diluting 500-fold a 10 mg/mL solution of the staining compound in DMSO with purified water, with a fluorescence spectrophotometer FL 4500 manufactured by Hitachi High-Technologies Corporation.

Zebrafish juveniles = assay: In vivo labelling of Zebrafish juveniles with probe for biological specimen; set-up: key to Staining property: +++: stained; −: no stained; key to Fluorescence sensitivity: +++: strongly observed; ++: moderately observed; +: weakly observed; −: no stained; conditions: 1 hour; for Site(s) to be labelled: 10 ng/mL in water, stereoscopic microscope; for Fluorescence sensitivity / Staining property: 10 ng/mL; for Fluorescence sensitivity: fluorescence intensity visually evaluated; for Staining property: visually evaluated
Description: Five juveniles of Zebrafish were put into one well of a well plate together with rearing water. After rearing water had been discharged, 1 mL of distilled water was added to the well, and a solution of a staining compound (1) in DMSO was further added thereto so as to achieve a concentration of 10 ng/mL, followed by gentle stirring (pipetting). Further, Egg Water was prepared by dissolving artificial seawater SEALIFE (manufactured by Marinetech Co., Ltd.) in distilled water at a concentration of 60 mg/L. After the whole had been left to stand for 1 hour, distilled water in the well was discharged and replaced by 1 mL of fresh Egg Water. In addition, such an operation that Egg Water was discharged and replaced by 1 mL of fresh Egg Water was repeated twice. One of the juveniles was taken out from the well onto a dish, supplemented with 100 μL of a 3% methylcellulose aqueous solution to fix the movement of the juvenile, and photographed with a stereoscopic microscope (MZ10F: manufactured by Leica Microsystems K.K.).
The same operation as that in Example 1 was performed except that the staining compound (1) used in Example 1 was changed to any one of the staining compounds described in Table 1.
The same operation as that in Example 1 was performed except that the staining compound (1) used in Example 1 was changed to any one of indocyanine green (ICG) and fluorescein.
The staining property of each of the staining compounds of Labelled Examples 1 to 78 and Labelled Comparative Examples 1 and 2 was visually evaluated (+++: stained and −: no stained).
The fluorescence intensity of each of the staining compounds of Labelled Examples 1 to 78 and Labelled Comparative Examples 1 and 2 was visually evaluated (+++: strongly observed, ++: moderately observed, +: weakly observed, and −: no stained).

SMILES | Storage stability [1] | Excitation wavelength λex [2] | Fluorescence emission wavelength λem [2] | Stokes shift (λem − λex) [2] | Site(s) to be labelled (Zebrafish juveniles) | Fluorescence sensitivity (Zebrafish juveniles) | Staining property (Zebrafish juveniles)
O=C(O)CN1C(=O)/C(=C\c2ccc3c(c2)C2CCCC2N3c2ccccc2)SC1=S (stereo not drawn) [Dye 1] | +++ (rates of change of the absorbance and the fluorescence intensity are less than 5%, and thus, the storage stability is highly excellent) | 531 nm | 633 nm | 102 | blood vessel, gallbladder, and gastrointestinal | +++ | +++
O=C(O)CN1C(=O)/C(=C\c2cc(Br)c3c(c2)C2CCCC2N3c2ccc(Br)cc2)SC1=S (stereo not drawn) [Dye 2] | +++ (rates of change of the absorbance and the fluorescence intensity are less than 5%, and thus, the storage stability is highly excellent) | 482 nm | 609 nm | 127 | blood vessel, liver, and gastrointestinal tract | +++ | +++
O=C(O)CN1C(=O)/C(=C\c2ccc3c(c2)C2CCCC2N3Cc2ccccc2)SC1=S (stereo not drawn) [Dye 3] | +++ (rates of change of the absorbance and the fluorescence intensity are less than 5%, and thus, the storage stability is highly excellent) | 525 nm | 607 nm | 82 | blood vessel, gallbladder, and gastrointestinal | +++ | +++
N#C/C(=C\c1ccc2c(c1)C1CCCC1N2Cc1ccccc1)C(=O)O (stereo not drawn) [Dye 5] | +++ (rates of change of the absorbance and the fluorescence intensity are less than 5%, and thus, the storage stability is highly excellent) | 482 nm | 580 nm | 98 | liver, gallbladder, and gastrointestinal tract | ++ | +++
N#C/C(=C\c1ccc2c(c1)C1CCCC1N2c1ccc(C=C(c2ccccc2)c2ccccc2)cc1)C(=O)O (stereo not drawn) [Dye 7] | +++ (rates of change of the absorbance and the fluorescence intensity are less than 5%, and thus, the storage stability is highly excellent) | 498 nm | 601 nm | 103 | blood vessel and liver | +++ | +++
O=C(O)Cn1c(=O)/c(=C\c2ccc3c(c2)C2CCCC2N3Cc2ccccc2)s/c1=C1/SC(=S)N(Cc2ccccc2)C1=O (stereo not drawn) [Dye 11] | +++ (rates of change of the absorbance and the fluorescence intensity are less than 5%, and thus, the storage stability is highly excellent) | 588 nm | 668 nm | 80 | blood vessel, liver, and gastrointestinal tract | ++ | +++
N#C/C(=C\c1ccc2c(c1)C1CCCC1N2c1ccccc1)C(=O)O (stereo not drawn) [Dye 13] | +++ (rates of change of the absorbance and the fluorescence intensity are less than 5%, and thus, the storage stability is highly excellent) | 477 nm | 567 nm | 90 | liver and gastrointestinal tract | ++ | +++
COc1ccc2cc(N3c4ccc(/C=C5\C(=O)N(c6ccccc6)N=C5C(=O)O)cc4C4CCCC43)ccc2c1 (stereo not drawn) [Dye 14] | +++ (rates of change of the absorbance and the fluorescence intensity are less than 5%, and thus, the storage stability is highly excellent) | 610 nm | 675 nm | 65 | gallbladder | ++ | +++
CSc1ccc(N2c3ccc(/C=C4/SC(=S)N(CC(=O)O)C4=O)cc3C3CCCC32)cc1 (stereo not drawn) [Dye 17] | +++ (rates of change of the absorbance and the fluorescence intensity are less than 5%, and thus, the storage stability is highly excellent) | 527 nm | 636 nm | 109 | blood vessel, liver, and gastrointestinal tract | +++ | +++
COc1ccc2cc(N3c4ccc(/C=C5/SC(=S)N(CCC(=O)O)C5=O)cc4C4CCCC43)ccc2c1 (stereo not drawn) [Dye 20] | +++ (rates of change of the absorbance and the fluorescence intensity are less than 5%, and thus, the storage stability is highly excellent) | 533 nm | 661 nm | 128 | blood vessel, liver, and gastrointestinal tract | +++ | +++
CC1=NN(c2ccccc2)C(=O)/C1=C\c1cc(Br)c2c(c1)C1CCCC1N2c1ccc(Br)cc1 (stereo not drawn) [Dye 22] | ++ (rates of change of the absorbance and fluorescence intensity are 5 to 15%, and thus, the storage stability is excellent) | 570 nm | 598 nm | 28 | liver and gastrointestinal tract | +++ | +++
O=C(O)C[n+]1c(/C=C/c2ccc3c(c2)C2CCCC2N3Cc2ccccc2)sc2ccccc21 (stereo not drawn) [Dye 24] | +++ (rates of change of the absorbance and the fluorescence intensity are less than 5%, and thus, the storage stability is highly excellent) | 566 nm | 611 nm | 45 | nose | +++ | +++
N#C/C(=C\c1cc(Br)c2c(c1)C1CCCC1N2Cc1cccc(Br)c1)C(=O)O (stereo not drawn) [Dye 25] | +++ (rates of change of the absorbance and the fluorescence intensity are less than 5%, and thus, the storage stability is highly excellent) | 394 nm | 554 nm | 160 | gastrointestinal tract | ++ | +++
O=C(O)CCN1C(=O)/C(=C\c2cc(Br)c3c(c2)C2CCCC2N3c2ccc(Br)cc2)SC1=S (stereo not drawn) [Dye 29] | +++ (rates of change of the absorbance and the fluorescence intensity are less than 5%, and thus, the storage stability is highly excellent) | 518 nm | 575 nm | 57 | blood vessel, gallbladder, and liver | +++ | +++
CCN1C(=O)/C(=c2\s/c(=C/c3ccc4c(c3)C3CCCC3N4c3ccccc3)c(=O)n2CC(=O)O)SC1=S (stereo not drawn) [Dye 30] | +++ (rates of change of the absorbance and the fluorescence intensity are less than 5%, and thus, the storage stability is highly excellent) | 502 nm | 644 nm | 142 |  | +++ | +++
COc1ccc(N2c3ccc(/C=C/c4sc5ccccc5[n+]4CC(=O)O)cc3C3CCCC32)cc1 (stereo not drawn) [Dye 31] | +++ (rates of change of the absorbance and the fluorescence intensity are less than 5%, and thus, the storage stability is highly excellent) | 560 nm | 677 nm | 117 | nose | +++ | +++
O=C1OC2(c3ccc(O)cc3Oc3cc(O)ccc32)c2ccccc21 [fluorescein, reference compound] | ++ (rates of change of the absorbance and fluorescence intensity are 5 to 15%, and thus, the storage stability is excellent) |  |  |  |  | ++ | +++
